pEC50: −log10 of the molar value.
System: HCV 1b genotype
Assay: HCV replicon assay (HCV-neo replicon cells, wild-type)
Assay type: cell-based, Hepatitis C virus
Conditions: Hepatitis C virus, HCV 1b genotype replicon; class symbol; read-out: EC50 Range against HCV 1b
Procedure, shortened: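 HCV-neo replicon cells (wild-type) and replicon cells carrying NS5A resistance substitutions were treated with compounds; assay per O'Boyle et al. 2005, with luciferase-reporter read-out variants also used.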

`C[C@H](NC(=O)[C@](C)(O)c1ccccc1)C(=O)Nc1ccc(-c2nnc(-c3ccc(NC(=O)[C@H](C)NC(=O)[C@](C)(O)c4ccccc4)cc3)o2)cc1` [RK-31, (2R,2′R)-N,N′-(1,3,4-oxadiazole-2,5-diylbis(4,1-phenyleneimino((2S)-1-oxo-1,2-propanediyl)))bis(2-hydroxy-2-phenylpropanamide)] and `COC(C(=O)N[C@@H](C)C(=O)Nc1ccc(-c2nnc(-c3ccc(NC(=O)[C@H](C)NC(=O)C(OC)c4ccccc4)cc3)o2)cc1)c1ccccc1` (stereo partly drawn) [RK-19, (2S,2′S)-N,N′-(1,3,4-oxadiazole-2,5-diyldi-4,1-phenylene)bis(2-((methoxy(phenyl)acetyl)amino)propanamide)] fall in the same range of pEC50: 6.00 to 7.00 for the first, 6.00 to 7.00 for the second.

First: O=C(Nc1ccc(-c2nnc(-c3ccc(NC(=O)[C@@H]4CCCN4C(=O)Cc4cccs4)cc3)o2)cc1)[C@@H]1CCCN1C(=O)Cc1cccs1 [Example D-61, (2S,2′S)-N,N′-(4,4′-(1,3,4-oxadiazole-2,5-diyl)bis(4,1-phenylene))bis(1-(2-(thiophen-2-yl)acetyl)pyrrolidine-2-carboxamide)]
Second: CC1(C(=O)N2CCC[C@H]2C(=O)Nc2ccc(-c3cnc(-c4ccc(NC(=O)[C@@H]5CCCN5C(=O)C5(C)CCC(=O)N5Cc5ccccc5)cc4)o3)cc2)CCC(=O)N1Cc1ccccc1 (stereo partly drawn) [Example D-23, (2S,2′S)-N,N′-(1,3-oxazole-2,5-diyldi-4,1-phenylene)bis(1-((1-benzyl-2-methyl-5-oxo-2-pyrrolidinyl)carbonyl)-2-pyrrolidinecarboxamide)]
The pEC50 of the first is higher: 6.00 to 7.00 for the first, 5.00 to 6.00 for the second.

Compared with `C[C@H](NC(=O)[C@@H](O)c1ccccc1)C(=O)Nc1ccc(-c2cnc(-c3ccc(NC(=O)[C@H](C)NC(=O)[C@@H](O)c4ccccc4)cc3)o2)cc1` [OL-54, (2S,2′S)-N,N′-(1,3-oxazole-2,5-diyldi-4,1-phenylene)bis(2-(((2S)-2-hydroxy-2-phenylacetyl)amino)propanamide)], `CO[C@H]1C[C@@H](C(=O)Nc2ccc(-c3cnc(-c4ccc(NC(=O)[C@@H]5C[C@H](OC)CN5C(=O)[C@H](O)c5ccccc5)cc4)o3)cc2)N(C(=O)[C@H](O)c2ccccc2)C1` [OL-58, (2S,4S,2′S,4′S)-N,N′-(1,3-oxazole-2,5-diyldi-4,1-phenylene)bis(1-((2R)-2-hydroxy-2-phenylacetyl)-4-methoxy-2-pyrrolidinecarboxamide)] is higher in pEC50: 7.00 to 8.34 for the first, greater than 8.34 for the second. The second is the more potent here.

With `CO[C@H]1C[C@@H](C(=O)Nc2ccc(-c3cnc(-c4ccc(NC(=O)[C@@H]5C[C@H](OC)CN5C(=O)[C@@H](c5ccccc5)N(C)C)cc4)o3)cc2)N(C(=O)[C@@H](c2ccccc2)N(C)C)C1` [OL-59, (2S,4S,2′S,4′S)-N,N′-(1,3-oxazole-2,5-diyldi-4,1-phenylene)bis(1-((2R)-2-(dimethylamino)-2-phenylacetyl)-4-methoxy-2-pyrrolidinecarboxamide)] the pEC50 was greater than 8.34.

Same assay, conditions: Hepatitis C virus, HCV 1b genotype replicon; class symbols; read-out: EC50 Range against HCV 1b

Compared with `Cc1ccc(C)c(C(=O)N2CCC[C@H]2C(=O)Nc2ccc(-c3cnc(-c4ccc(NC(=O)[C@@H]5CCCN5C(=O)c5cc(C)ccc5C)cc4)o3)cc2)c1` [XY-43, (2S,2′S)-N,N′-(1,3-oxazole-2,5-diyldi-4,1-phenylene)bis(1-(2,5-dimethylbenzoyl)-2-pyrrolidinecarboxamide)], `O=C(Nc1ccc(-c2cnc(-c3ccc(NC(=O)[C@@H]4CCCN4C(=O)[C@H]4CCCO4)cc3)o2)cc1)[C@@H]1CCCN1C(=O)[C@H]1CCCO1` [XY-32, (2S,2′S)-N,N′-(1,3-oxazole-2,5-diyldi-4,1-phenylene)bis(1-((2R)-tetrahydro-2-furanylcarbonyl)-2-pyrrolidinecarboxamide)] is higher in pEC50: 5.00 to 6.00 for the first, 7.00 to 8.34 for the second. The second is the more potent here.

`O=C(Nc1ccc(-c2cnc(-c3ccc(NC(=O)[C@@H]4CCCN4C(=O)C(c4ccccc4)n4c(=O)[nH]c5ccccc54)cc3)o2)cc1)[C@@H]1CCCN1C(=O)C(c1ccccc1)n1c(=O)[nH]c2ccccc21` (stereo partly drawn) [JR-11, (2S,2′S)-N,N′-(2,5-oxazolediyldi-4,1-phenylene)bis[1-[(2,3-dihydro-2-oxo-1H-benzimidazol-1-yl)phenylacetyl]-2-pyrrolidinecarboxamide]] gave a pEC50 of 6.00 to 7.00.

Same assay, conditions: Hepatitis C virus, HCV 1b genotype replicon; read-out: EC50 1b

Compound `O=C(Nc1ccc(-c2nnc(-c3ccc(NC(=O)[C@@H]4CCCN4C(=O)Cc4cccs4)cc3)o2)cc1)[C@@H]1CCCN1C(=O)Cc1cccs1` [Example D-61, (2S,2′S)-N,N′-(4,4′-(1,3,4-oxadiazole-2,5-diyl)bis(4,1-phenylene))bis(1-(2-(thiophen-2-yl)acetyl)pyrrolidine-2-carboxamide)] has a pEC50 of 6.49.
